From US9121022B2, “Method for controlling herbicide-resistant plants” (priority 2010, dated 2015)
Entries after “also recorded” stand apart in the source; their conditions may differ. d = 2'-deoxy (DNA); r = 2'-OH (RNA)

B1: 678 bp Palmer PDS dsRNA: dsRNA to positions 317-994 of Palmer amaranth PDS (SEQ ID NO:37) (nucleic acid, listed as Amaranthus palmeri)
sense: TAGGAGGAAAGGTTGCAGCGTGGAAGGATGAGGATGGTGACTGGTATGAGACTGGGCTACATATATTCTTTGGGGCATATCCAAATGTCCAAAATCTATTTGGAGAACTTGGTATAAATGACCGACTGCAATGGAAGGAGCACTCTATGATTTTTGCAATGCCCAGCAAGCCCGGTGAATTCAGTCGCTTTGATTTTCCCGAAATCCTGCCTGCACCATTAAATGGCATATGGGCAATCCTAAGAAATAATGAAATGCTAACCTGGCCAGAAAAAATCAAGTTTGCCATTGGCTTGTTGCCTGCTATGGCAGGCGGACAGTCATATGTTGAAGCACAAGATGGTTTGAGTGTCCAAGAGTGGATGAGAAAACAAGGAGTACCCGATCGTGTAACTGATGATGTGTTTATTGCCATGTCAAAGGCACTGAACTTCATAAATCCCGATGAACTTTCAATGCAGTGCATCTTGATTGCTCTGAACCGATTCCTGCAGGAGAAACATGGTTCTAAGATGGCCTTCCTAGACGGAAACCCTCCAGAGAGGCTGTGCATGCCTATTGTTAAACACATCGAGTCACTAGGTGGTGAAGTTAAACTTAACTCTCGTATACAAAAGATTCAGTTGGACCAGAGTGGAAGCGTGAAGAGTTTTTTGCTAAATAACGGGAGGGAAATAC
modifications: complementary strand
B2: Treatment 10: dsRNA corresponding to nucleotides 914-1113 of SEQ ID NO:2 (nucleic acid, listed as Nicotiana benthamiana)
chain: ACAGATTTCTTCAGGAGAAACATGGTTCAAAAATGGCCTTTTTAGATGGTAACCCTCCTGAGAGACTTTGCATGCCGATTGTGGAACATATTGAGTCAAAAGGTGGCCAAGTCAGACTAAACTCACGAATAAAAAAGATCGAGCTGAATGAGGATGGAAGTGTCAAATGTTTTATACTGAATAATGGCAGTACAATTAAA
modifications: double-stranded RNA
B3: 9 (nucleic acid)
chain 1: GCAAGAGATGTCCTAGGTGGG
chain 2: ACAGATTTCTTCAGGAGAAACATGG
chain 3: CATCTCCTTTAATTGTACTGCC
chain 4: TTTAATTGTACTGCCATTATTC
chain 5: CACTTCCATCCTCATTCAGCTCGAT
chain 6: ACACCTCATCTGTCACCCTATCAG
chain 7: CAGTCTCGTACCAATCTCCATCAT
modifications: DNA, backbone not given here
B4: 198 bp Palmer PDS dsRNA: dsRNA to positions 797-994 of Palmer amaranth PDS (SEQ ID NO:37) (nucleic acid, listed as Amaranthus palmeri)
sense: ACCGATTCCTGCAGGAGAAACATGGTTCTAAGATGGCCTTCCTAGACGGAAACCCTCCAGAGAGGCTGTGCATGCCTATTGTTAAACACATCGAGTCACTAGGTGGTGAAGTTAAACTTAACTCTCGTATACAAAAGATTCAGTTGGACCAGAGTGGAAGCGTGAAGAGTTTTTTGCTAAATAACGGGAGGGAAATAC
modifications: complementary strand

How the values were obtained:
[1] = tested on: Nicotiana benthamiana phytoene desaturase; assay: topical PDS oligonucleotides/polynucleotides on tobacco, bleaching and chlorophyll (Example 10); assay type: in vivo; conditions: for Chlorophyll (day 7) / Chlorophyll (day 12): 6 spots on the apical area, lower values indicate suppression of phytoene desaturase; for systemic regulation (suppression) of the target phytoene desaturase gene: conclusion from Table 4; for Bleaching (day 5): day 5 after treatment
From the text: The target gene used was a Nicotiana benthamiana phytoene desaturase (SEQ ID NO:2), shown in FIG. 10; the segment consisting of nucleotides 421-1120 of SEQ ID NO:2 (underlined text in FIG. 10) was used to design a 700-mer dsRNA polynucleotide (“PDS 700-mer”) and the segment consisting of nucleotides 914-1113 of SEQ ID NO:2 (bolded underlined text in FIG. 10) was used to design a 200-mer dsRNA polynucleotide (“PDS 200-mer”). FIG. 11 schematically depicts the location of the sequences of these oligonucleotides and polynucleotides in relation to the […] (SEQ ID NO:2) sequence. Non-plant sequences obtained from corn rootworm (“CRW”), SEQ ID NOs:27, 28, 29, and 30 were used as non-homologous controls. Some of the polynucleotides included a T7 promoter sequence (indicated by lower-case text in Table 3) that is a promoter recognized by a bacteriophage T7 RNA polymerase.
The following procedure was used for all assays described in this example. Four-week old Nicotiana benthamiana plants were used in all assays. Plants were treated with 0.1% SILWET L-77® brand surfactant solution freshly made with ddH2O. Two fully expanded leaves per plant (one cotyledon, one true leaf) were dipped into the SILWET L-77® brand surfactant solution for a few seconds, and allowed to dry for 15-30 minutes before application of the polynucleotide composition. Final concentration for each oligonucleotide or polynucleotide was 25 microM (in 0.01% SILWET L-77® brand surfactant, 5 mM sodium phosphate buffer, pH 6.8) unless otherwise stated. 20 microliters of the solution was applied to the top surface of each of the two pre-treated leaves to provide a total of 40 microliters (1 nmol oligonucleotide or polynucleotide) for each plant. Leaf bleaching was observed 3 days post treatment.
FIG. 13 illustrates phenotypes observed at day 12 after treatment in another assay of the effect from twelve combinations of polynucleotides or oligonucleotides (see Table 4). Table 4 also lists observations of visible bleaching of the plants at day 5 after treatment and the results of chlorophyll measurements taken at days 7 and 12 after treatment. Chlorophyll measurements are an indication of suppression of the target gene phytoene desaturase, and measurements were taken at 6 spots on the apical area, focussing on visibly bleached leaves or (in plants without visible bleaching) on leaves in equivalent locations on the plants; lower chlorophyll measurement values indicate suppression of phytoene desaturase.

[2] = tested on: Palmer amaranth (EPSPS copy numbers 16 to 112); assay: combinations of EPSPS, TIF and ddATPase polynucleotides with glyphosate, protocols of Table 12 (Example 26, Table 13); assay type: in vivo, Palmer amaranth (Amaranthus palmeri)
Method: The polynucleotides listed in Table 11 were produced by synthesis or by in vitro transcription.
Solutions of the polynucleotides were prepared and applied to the leaves of Palmer amaranth using the protocols described in Table 12.

[3] = tested on: Palmer amaranth phytoene desaturase (PDS); assay: sequence specificity of PDS dsRNA on Palmer amaranth, leaf bleaching (Example 11); assay type: in vivo; conditions: for bleaching of leaves: 0.6 micromolar, 40 microliters per plant, 3 days post treatment; for bleaching of leaves (FIG. 17): separate assay
From the text: Palmer amaranth phytoene desaturase (PDS) has the sequence […] […] […] […] […] […] […] […] […] […] […] […] […] […] […] […] […] […] […] […] […] […] […] […] (SEQ ID NO:37). A 678 base pair dsRNA polynucleotide with an anti-sense strand capable of hybridizing to the RNA encoded by the nucleotides at positions 317-994 (shown as underlined text) in SEQ ID NO:37 and a 198 base pair dsRNA polynucleotide with an anti-sense strand capable of hybridizing to the RNA encoded by the nucleotides at positions 797-994 (shown as italicized and underlined text) in SEQ ID NO:37 were synthesized.
Nicotiana benthamiana phytoene desaturase has the sequence […] […] […] […] […] […] […] […] […] […] […] […] […] […] […] […] […] […] […] […] […] […] […] […] […] […] (SEQ ID NO:38). A 685 base pair dsRNA polynucleotide with an anti-sense strand capable of hybridizing to the RNA encoded by the nucleotides at positions 421-1105 (shown as underlined text) in SEQ ID NO:38 and a 192 base pair dsRNA polynucleotide with an anti-sense strand capable of hybridizing to the RNA encoded by the nucleotides at positions 914-1105 (shown as italicized and underlined text) in SEQ ID NO:38 were synthesized.
Palmer amaranth plants having 16 copies of EPSPS and 5-8 inches high were treated with 0.1% SILWET L-77® brand surfactant solution freshly made with ddH2O. Four fully expanded leaves per plant were dipped into the SILWET L-77® brand surfactant solution for a few seconds, and allowed to dry for 30 minutes to 1 hour before application of the polynucleotide composition. Individual polynucleotide solutions were made for each of the 678 bp Palmer PDS dsRNA, 198 bp Palmer PDS dsRNA, the 685 bp Nicotiana benthamiana PDS dsRNA, and the 192 bp Nicotiana benthamiana PDS dsRNA (0.6 micromolar polynucleotide in 0.01% SILWET L-77® brand surfactant, 5 mM sodium phosphate buffer, pH 6.8). 10 microliters of polynucleotide solution (or buffer as a control) was applied to the top surface of each of the four pre-treated leaves per plant to provide a total of 40 microliters for each plant. Plants were kept in a growth chamber, and leaf bleaching was observed 3 days post treatment.

[4] = Protocol 3, 29 g/acre, copy number 16, 13 DAT

| Molecule | Chlorophyll (day 7) [1] | Chlorophyll (day 12) [1] | systemic regulation (suppression) of the target phytoene desaturase gene [1] | Bleaching (day 5) [1] | also measured |
| --- | --- | --- | --- | --- | --- |
| 6 (sense ATCCATGATATCGTGAACATC; antisense GCAAAGAAAAATGCGTCG; DNA, backbone not given here) [compound 6] | 34.2 | 38.2 | did not suppress | not yet | – |
| 7 (sense 1 GCAAGAGATGTCCTAGGTGGG; sense 2 ACAGATTTCTTCAGGAGAAACATGG; DNA, backbone not given here) [compound 7] | 32.0 | 41.1 | did not suppress | not yet | – |
| 8 (antisense 1 CATCTCCTTTAATTGTACTGCC; antisense 2 TTTAATTGTACTGCCATTATTC; DNA, backbone not given here) [compound 8] | 11.3 | 3.2 | effective | strong | – |
| IDT [1]: Palmer/EPSPS dsRNA, SEQ ID NO. 83, 84; 25-mer sense with two 3′ deoxyribonucleotides, 27-mer anti-sense (sense CUACCAUCAACAAUGGUGUCCAUAC; antisense GUAUGGACACCAUUGUUGAUGGUAGUA; sense: sugars from the 5' end r23 d2, backbone not given here; antisense: RNA, backbone not given here) | – | – | – | – | Results: stunted [2, 4]: 51% stunted |
| IDT [2]: Palmer/EPSPS dsRNA, SEQ ID NO. 85, 86 (chain 1 AGUUGGUGGGCAAUCAUCAAUUGTT; chain 2 AACAAUUGAUGAUUGCCCACCAACUCU; chain 1: sugars from the 5' end r23 d2, backbone not given here; chain 2: RNA, backbone not given here) | – | – | – | – | Results: control [2, 4]: 0% control |
| IDT [3]: Palmer/EPSPS dsRNA, SEQ ID NO. 87, 88 (chain 1 GGUCGACAACUUGCUGUAUAGUGAT; chain 2 AUCACUAUACAGCAAGUUGUCGACCUC; chain 1: sugars from the 5' end r23 d2, backbone not given here; chain 2: RNA, backbone not given here) | – | – | – | – | Results: stunted [2, 4]: 51% stunted |
| IDT [5]: Palmer/EPSPS dsRNA (21-mer) with blunt ends, SEQ ID NO. 91, 92 (chain 1 AACAUGAACAAAAUGCCAGAU; chain 2 AUCUGGCAUUUUGUUCAUGUU; RNA, backbone not given here) | – | – | – | – | Results: stunted ([2]; Protocol 1, 0.29 g/acre, copy number 33, 54, 55, 18 DAT): 71%; Results: killed ([2]; Protocol 1, 2.9 g/acre each, copy number 34, 36, 54, 22 DAT): 100% kill; Results: killed ([2]; Protocol 1, 2.9 g/acre, copy number 33, 54, 55, 18 DAT): 100% killed |
| Treatment 8: SEQ ID NO: 22, 23; anti-sense 22-mer oligos without T7 promoter (antisense 1 CATCTCCTTTAATTGTACTGCC; antisense 2 TTTAATTGTACTGCCATTATTC; listed as DNA, chemistry not given here) | – | – | – | – | bleaching of apical leaves (FIG. 15) ([1]; another assay, listed as PDS anti-sense): strong bleaching; also recorded: apical leaf bleaching observed |
| B1 | – | – | – | – | bleaching of leaves [3]: showed bleaching of leaves; bleaching of leaves (FIG. 17) [3]: apical leaf bleaching observed |
| B2 | – | – | also effective | – | bleaching of apical leaves (FIG. 12A) ([1]; 200-mer dsRNA at 0.6 microM, oligonucleotides 25 microM each): Bleaching of apical leaves was observed |
| B3 | 30.2 | 34.4 | – | not yet | – |
| B4 | – | – | – | – | bleaching of leaves [3]: showed bleaching of leaves; bleaching of leaves (FIG. 17) [3]: apical leaf bleaching observed |
